In the supplement of paper PMC4862054:

What was measured:
Test in all cases: normalised viability (% of control), CellTiter-Blue; higher = more viable cells (about 100 = DMSO control)
Conditions in all cases: incubation time: 72 h
SK-BR-3 = system: SK-BR-3
How it was run: (§1)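 Breast cancer cell lines were treated for 72 h in 384-well format and measured by CellTiter-Blue fluorescence at 560/590 nm. Results were normalised per plate to vehicle (100) and a positive kill control (0). The entry is normalised viability at a single listed concentration of the series.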

DU-4475 = system: DU-4475
How it was run: as §1

HCC1937 = system: HCC1937
How it was run: as §1

MDA-MB-436 = system: MDA-MB-436
How it was run: as §1

HDQ-P1 = system: HDQ-P1
How it was run: as §1

CAL-120 = system: CAL-120
How it was run: as §1

MDA-MB-231 = system: MDA-MB-231
How it was run: as §1

NC(=O)NO [Hydroxyurea]
normalised viability [%]
Conditions	CAL-120	DU-4475	HCC1937	HDQ-P1	MDA-MB-231	MDA-MB-436	SK-BR-3
30 nM	–	122	–	108	–	–	–
100 nM	113	–	86.9	–	113	99.4	114
300 nM	–	115	–	122	–	–	–
1000 nM	–	98.3	–	111	–	–	–
10000 nM	95.4	–	81.2	–	98.8	89.4	117
100000 nM	101	–	72.7	–	93.2	102	114

O=NN(CCCl)C(=O)NC1CCCCC1 [Lomustine]
normalised viability [%]
Conditions	CAL-120	DU-4475	HCC1937	HDQ-P1	MDA-MB-231	MDA-MB-436	SK-BR-3
3 nM	–	117	–	117	–	–	–
10 nM	93.9	–	92	–	110	108	97.3
30 nM	–	98.7	–	98.7	–	–	–
100 nM	–	88.2	–	105	–	–	–
1000 nM	91.3	–	90.4	–	100	95.5	125
10000 nM	105	–	96	–	95.9	97.7	96

O=C(O)CC[C@H]1CC[C@@](c2cc(F)ccc2F)(S(=O)(=O)c2ccc(Cl)cc2)CC1 [MK-0752]
normalised viability [%]
Conditions	CAL-120	DU-4475	HCC1937	HDQ-P1	MDA-MB-231	MDA-MB-436	SK-BR-3
0.3 nM	–	115	–	122	–	–	–
1 nM	90.2	–	96	–	97.7	109	106
3 nM	–	91.5	–	96.5	–	–	–
10 nM	–	101	–	115	–	–	–
100 nM	97.2	–	86.9	–	92.5	92.2	105
1000 nM	95.7	–	92.1	–	89.7	111	111

NC1(c2ccc(-c3nc4ccn5c(=O)[nH]nc5c4cc3-c3ccccc3)cc2)CCC1 [MK-2206]
normalised viability [%]
Conditions	CAL-120	DU-4475	HCC1937	HDQ-P1	MDA-MB-231	MDA-MB-436	SK-BR-3
0.3 nM	–	120	–	110	–	–	–
1 nM	111	–	87.4	–	127	104	107
3 nM	–	111	–	111	–	–	–
10 nM	–	107	–	109	–	–	–
100 nM	106	–	98.5	–	95.9	80.7	76.2
1000 nM	79.2	–	104	–	104	81	42.1

NC(=O)c1cccc2cn(-c3ccc([C@@H]4CCCNC4)cc3)nc12 [MK-4827]
normalised viability [%]
Conditions	CAL-120	DU-4475	HCC1937	HDQ-P1	MDA-MB-231	MDA-MB-436	SK-BR-3
3 nM	–	94.8	–	95.3	–	–	–
10 nM	81	–	55.2	–	94	84.2	95.9
30 nM	–	81.1	–	94.1	–	–	–
100 nM	–	85.5	–	95.6	–	–	–
1000 nM	76.9	–	70.5	–	90.7	72.4	95.2
10000 nM	71.1	–	38.3	–	62.2	65.3	74.9

N[C@@H](Cc1ccc(N(CCCl)CCCl)cc1)C(=O)O [Melphalan]
normalised viability [%]
Conditions	CAL-120	DU-4475	HCC1937	HDQ-P1	MDA-MB-231	MDA-MB-436	SK-BR-3
0.297 nM	–	101	–	117	–	–	–
0.99 nM	74.3	–	89	–	91.1	88.2	94.6
2.97 nM	–	84.1	–	94	–	–	–
9.9 nM	–	92.8	–	91.2	–	–	–
99 nM	71.6	–	64.2	–	97.7	90	98.8
990 nM	64.3	–	39.5	–	91.5	75.4	50.6

Cc1c(C(=O)Nc2ccc(N3C[C@@H](C)O[C@@H](C)C3)nc2)cccc1-c1ccc(OC(F)(F)F)cc1 [NVP-LDE225]
normalised viability [%]
Conditions	CAL-120	DU-4475	HCC1937	HDQ-P1	MDA-MB-231	MDA-MB-436	SK-BR-3
3 nM	–	105	–	76.2	–	–	–
10 nM	99.9	–	38.8	–	121	83	104
30 nM	–	112	–	84	–	–	–
100 nM	–	96	–	84.9	–	–	–
1000 nM	92.7	–	92.7	–	102	29.2	102
10000 nM	97	–	82.1	–	82.9	67.3	111

O=C(c1cc(Cc2n[nH]c(=O)c3ccccc23)ccc1F)N1CCN(C(=O)C2CC2)CC1 [Olaparib]
normalised viability [%]
Conditions	CAL-120	DU-4475	HCC1937	HDQ-P1	MDA-MB-231	MDA-MB-436	SK-BR-3
3 nM	–	95.6	–	95.6	–	–	–
10 nM	78.7	–	78.5	–	89.7	113	103
30 nM	–	89.2	–	102	–	–	–
100 nM	–	91.6	–	103	–	–	–
1000 nM	80.5	–	58.4	–	88	105	93.5
10000 nM	68.6	–	51.2	–	72.2	95.6	82.1
